According to ChEMBL document CHEMBL5029172, “Neopentyl Glycol as a Scaffold to Provide Radiohalogenated Theranostic Pairs of High In Vivo Stability” (J Med Chem, 2021):

Experiments:
[1] = Biodistribution in ICR mouse assessed as blood clearance by measuring elimination rate at 7.4 kBq, iv upto 24 hrs; assay type: ADME, organism-based; conditions: in vivo
[2] = Biodistribution in ICR mouse stomach at 7.4 kBq, iv upto 24 hrs; assay type: ADME, organism-based; conditions: in vivo
[3] = Biodistribution in ICR mouse neck at 7.4 kBq, iv upto 24 hrs; assay type: ADME, organism-based; conditions: in vivo
[4] = Drug metabolism in ICR mouse urine assessed as metabolite during retention time measured at 7.4 kBq, iv after 6 hrs by RP-HPLC followed by HILIC-HPLC analysis; assay type: ADME, organism-based
[5] = Metabolic stability in mouse liver microsomes assessed as retention time at […] measured after 5 mins by RP-HPLC; assay type: ADME, Microsome
[6] = Metabolic stability in human liver microsomes assessed as intact fractions at […] preincubated for 5 min measured by TLC followed by RP-HPLC; assay type: ADME, Microsome; conditions: read-out: Activity
[7] = Metabolic stability in human liver microsomes assessed as retention time at […] measured after 5 mins by RP-HPLC; assay type: ADME, Microsome
[8] = Metabolic stability in mouse liver microsomes assessed as intact fractions at […] preincubated for 5 min measured by TLC followed by RP-HPLC; assay type: ADME, Microsome; conditions: read-out: Activity
[9] = Stability of compound in presence of GSH measured upto 24 hrs by TLC radiochromatogram; assay type: physicochemical
[10] = Metabolic stability in human liver microsomes assessed as intact fractions at 0.3 MBq preincubated for 5 min measured by TLC analysis; assay type: ADME, Microsome; conditions: read-out: Stability
[11] = Metabolic stability in mouse liver microsomes assessed as intact fractions at 0.3 MBq preincubated for 5 min measured by TLC analysis; assay type: ADME, Microsome; conditions: read-out: Stability

| SMILES | CL [1] | Drug uptake [2] | Drug uptake [3] | Drug excretion [4] | Retention_time [5] | remaining at 5 min [6] | Retention_time [7] | remaining at 5 min [8] | Stability [9] | Drug metabolism [4] | remaining at 5 min, 0.3 MBq [10] | remaining at 5 min, 0.3 MBq [11] |
| --- | --- | --- | --- | --- | --- | --- | --- | --- | --- | --- | --- | --- |
| O=C(NCCn1ccnc1[N+](=O)[O-])c1cccc([211At])c1 | Not Active | Active | Active |  |  |  |  |  |  |  |  |  |
| CCC(CO)(C[125I])Cn1ccnc1[N+](=O)[O-] (stereo unspecified) | Active | Not Active | Not Active | Active | 23.5 min | > 99.8% | < 0.2 min | 72% | Stable |  |  |  |
| CCC(CC)(C[125I])Cn1ccnc1[N+](=O)[O-] | Not Active | Active | Active | Active | 52.6 min | 1.5% | 16.5 min | 2.2% | Stable |  |  |  |
| O=[N+]([O-])c1nccn1CC(CO)(CO)C[211At] | Active | Not Active | Not Active |  |  | 96.9% |  | 96.9% | Stable | Metabolite_Detected | 96.9% | 96.9% |

Now from value to compound, other results behind:

| CL [1] | Drug uptake [2] | Drug uptake [3] | Drug excretion [4] | Retention_time [5] | remaining at 5 min [6] | Retention_time [7] | remaining at 5 min [8] | Stability [9] | SMILES | Drug metabolism [4] | remaining at 5 min, 0.3 MBq [10] | remaining at 5 min, 0.3 MBq [11] |
| --- | --- | --- | --- | --- | --- | --- | --- | --- | --- | --- | --- | --- |
| Active | Not Active | Not Active | Not Active |  |  |  |  |  | O=C(NCCn1ccnc1[N+](=O)[O-])c1cccc([125I])c1 |  |  |  |
|  |  |  |  | < 0.2 min | > 99.8% | < 0.2 min | > 99.8% |  | CCC(C[125I])(CO[C@@H]1O[C@H](C(=O)O)[C@@H](O)[C@H](O)[C@H]1O)Cn1ccnc1[N+](=O)[O-] (stereo partly specified) |  |  |  |
| Active | Not Active | Not Active |  | < 0.2 min | > 99.8% | < 0.2 min | > 99.8% | Stable | O=[N+]([O-])c1nccn1CC(CO)(CO)C[125I] | Metabolite_Detected |  |  |
|  |  |  |  | < 0.2 min | > 99.8% | < 0.2 min | > 99.8% |  | O=C(O)[C@H]1O[C@@H](OCC(CO)(C[125I])Cn2ccnc2[N+](=O)[O-])[C@H](O)[C@@H](O)[C@@H]1O (stereo partly specified) |  |  |  |
